The target of one assay is human CB2 receptors (Homo sapiens (Human), UniProt P34972). The experiment in a line: human CB2 radioligand binding assay ([3H]CP 55,940 competition). The protocol:
(§1) The CB1 and CB2 radioligand binding assays described herein are utilized to ascertain the affinity of compounds of the present application for binding to CB2 relative to CB1 receptors.
HEK293 cells stably expressing human CB2 receptors were grown until a confluent monolayer was formed. Briefly, the cells were harvested and homogenized in TE buffer (50 mM Tris-HCl, 1 mM MgCl2, and 1 mM EDTA) using a polytron for 2×10 second bursts in the presence of protease inhibitors, followed by centrifugation at 45,000×g for 20 minutes. The final membrane pellet was re-homogenized in storage buffer (50 mM Tris-HCl, 1 mM MgCl2, and 1 mM EDTA and 10% sucrose) and frozen at −78° C. until used. Saturation binding reactions were initiated by the addition of membrane preparation (protein concentration of 5 μg/well for human CB2) into wells of a deep well plate containing [^3H]CP 55,940 (120 Ci/mmol, a nonselective CB agonist commercially available from Tocris) in assay buffer (50 mM Tris, 2.5 mM EDTA, 5 mM MgCl2, and 0.5 mg/mL fatty acid free BSA, pH 7.4). After 90 min incubation at 30° C., binding reaction was terminated by the addition of 300 μL/well of cold assay buffer followed by rapid vacuum filtration through a UniFilter-96 GF/C filter plates (pre-soaked in 1 mg/mL BSA for 2 hours). The bound activity was counted in a TopCount using Microscint-20. Saturation experiments were conducted with twelve concentrations of [^3H]CP 55,940 ranging from 0.01 to 8 nM. Competition experiments were conducted with 0.5 nM [^3H]CP 55,940 and five concentrations (0.01 nM to 10 μM) of displacing ligands. The addition of 10 μM unlabeled CP 55,940 (Tocris, Ellisville, Mo.) was used to assess nonspecific binding.

The next assay has as its target rat CB2 (Rattus norvegicus (Rat), UniProt Q9QZN9). The experiment in a line: rat CB2 radioligand binding assay ([3H]CP 55,940 competition). The method, then: as §1
HEK293 cells stably expressing rat CB2 receptors were grown until a confluent monolayer was formed. Briefly, the cells were harvested and homogenized in TE buffer (50 mM Tris-HCl, 1 mM MgCl2, and 1 mM EDTA) using a polytron for 2×10 second bursts in the presence of protease inhibitors, followed by centrifugation at 45,000×g for 20 minutes. The final membrane pellet was re-homogenized in storage buffer (50 mM Tris-HCl, 1 mM MgCl2, and 1 mM EDTA and 10% sucrose) and frozen at −78° C. until used. Saturation binding reactions were initiated by the addition of membrane preparation (protein concentration of 20 μg/well for rat CB2) into wells of a deep well plate containing [^3H]CP 55,940 (120 Ci/mmol, a nonselective CB agonist commercially available from Tocris) in assay buffer (50 mM Tris, 2.5 mM EDTA, 5 mM MgCl2, and 0.5 mg/mL fatty acid free BSA, pH 7.4). After 45 min incubation at 30° C., binding reaction was terminated by the addition of 300 μl/well of cold assay buffer followed by rapid vacuum filtration through a UniFilter-96 GF/C filter plates (pre-soaked in 1 mg/mL BSA for 2 hours). The bound activity was counted in a TopCount using Microscint-20. Saturation experiments were conducted with twelve concentrations of [^3H]CP 55,940 ranging from 0.01 to 8 nM. Competition experiments were conducted with 0.5 nM [^3H]CP 55,940 and five concentrations of displacing ligands selected from the range of 0.01 nM to […] addition of 10 μM unlabeled CP 55,940 (Tocris, Ellisville, Mo.) was used to assess nonspecific binding.

Setting [1] is: HEK293 membranes, 0.5 nM [3H]CP 55,940, read-out: human CB2 (Ki).
The mark [2] stands for this setting: HEK293 membranes, 0.5 nM [3H]CP 55,940, read-out: rat CB2 (Ki).

Structures are written as SMILES. Read-outs that look alike come from different tables or passages of the source.

In US8859596B2, “Compounds as cannabinoid receptor ligands” (priority 2008, dated 2014) one finds Ki data, which are given here for 20 compounds.

human CB2 receptors, sequence (P34972 whole entry): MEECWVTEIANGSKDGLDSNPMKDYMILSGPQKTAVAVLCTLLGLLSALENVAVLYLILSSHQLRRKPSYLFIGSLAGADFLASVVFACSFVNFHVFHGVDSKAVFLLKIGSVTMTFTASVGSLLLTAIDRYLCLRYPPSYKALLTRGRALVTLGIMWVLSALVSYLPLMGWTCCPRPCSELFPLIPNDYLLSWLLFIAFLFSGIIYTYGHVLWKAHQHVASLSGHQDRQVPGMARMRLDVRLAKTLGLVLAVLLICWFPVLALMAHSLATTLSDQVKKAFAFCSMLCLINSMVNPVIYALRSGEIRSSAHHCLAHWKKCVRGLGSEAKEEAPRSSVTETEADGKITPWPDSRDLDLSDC
rat CB2, sequence (Q9QZN9 whole entry): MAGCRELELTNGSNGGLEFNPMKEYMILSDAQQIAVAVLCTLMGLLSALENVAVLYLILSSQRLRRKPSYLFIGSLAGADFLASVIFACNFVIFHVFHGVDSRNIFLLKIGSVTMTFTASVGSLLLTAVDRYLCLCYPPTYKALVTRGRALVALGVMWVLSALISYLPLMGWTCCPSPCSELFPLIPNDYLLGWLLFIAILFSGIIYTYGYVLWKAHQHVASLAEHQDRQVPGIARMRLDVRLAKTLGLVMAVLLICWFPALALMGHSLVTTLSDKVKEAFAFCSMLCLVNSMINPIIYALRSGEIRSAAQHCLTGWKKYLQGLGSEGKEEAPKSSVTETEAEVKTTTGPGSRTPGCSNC

As to `CCCCn1nc(C(C)(C)C)s/c1=N\C(=O)c1cc(C(F)(F)F)ccc1N/N=C\c1cccc(C)n1` [Example 35, N-[(2Z)-3-butyl-5-tert-butyl-1,3,4-thiadiazol-2(3H)-ylidene]-2-{(2Z)-2-[(6-methylpyridin-2-yl)methylene]hydrazino}-5-(trifluoromethyl)benzamide], the values for the Ki at human CB2 receptors and at rat CB2 were 185 nM and 20 nM, respectively.
As for `CCCCn1nc(C2(C)CC2)s/c1=N\C(=O)c1cc(C(F)(F)F)ccc1ONC(C)(C)C` [Example 145, 2-[(tert-butylamino)oxy]-N-[(2Z)-3-butyl-5-(1-methylcyclopropyl)-1,3,4-thiadiazol-2(3H)-ylidene]-5-(trifluoromethyl)benzamide], the results for the Ki on human CB2 receptors (setting [1]) and on rat CB2 (setting [2]) were 16 nM and 2.5 nM, respectively.
Take `Cn1c(C(C)(C)C)c/c(=N\C(=O)c2cc(C(F)(F)F)ccc2ONC(C)(C)C)n1CC1CC1` [Example 146, 2-[(tert-butylamino)oxy]-N-[(3E)-5-tert-butyl-2-(cyclopropylmethyl)-1-methyl-1,2-dihydro-3H-pyrazol-3-ylidene]-5-(trifluoromethyl)benzamide]: the inhibition constant Ki on human CB2 receptors was found to be 54 nM; on rat CB2, 14 nM.
Consider `CC(C)(C)NOc1ccc(C(F)(F)F)cc1C(=O)/N=c1\sc(C(C)(C)C)nn1CC1CCCCO1` (stereo not shown) [Example 147, 2-[(tert-butylamino)oxy]-N-[(2Z)-5-tert-butyl-3-(tetrahydro-2H-pyran-2-ylmethyl)-1,3,4-thiadiazol-2(3H)-ylidene]-5-(trifluoromethyl)benzamide], for which the Ki at human CB2 receptors (setting [1]) turned out to be 1.7 nM; at rat CB2 (setting [2]), 0.7 nM.
Consider `CCCCn1nc(C(C)(C)C)s/c1=N\C(=O)c1cc(C(F)(F)F)ccc1/N=N/C(C)(C)C` [Example 148, N-[(2Z)-3-butyl-5-tert-butyl-1,3,4-thiadiazol-2(3H)-ylidene]-2-[(E)-tert-butyldiazenyl]-5-(trifluoromethyl)benzamide], for which the Ki worked out at 6.2 nM on human CB2 receptors (setting [1]) and 15 nM at rat CB2 (setting [2]).
With `CCCCn1/c(=N/C(=O)c2cc(C(F)(F)F)ccc2ONC(C)(C)C)cc(C(C)(C)C)n1C` [Example 149, 2-[(tert-butylamino)oxy]-N-[(3E)-2-butyl-5-tert-butyl-1-methyl-1,2-dihydro-3H-pyrazol-3-ylidene]-5-(trifluoromethyl)benzamide], the figures for the Ki at human CB2 receptors and at rat CB2 were 77 nM and 5.5 nM, respectively.
Consider `CCCCn1nc(C(C)(C)C)s/c1=N\C(=O)c1cc(C(F)(F)F)ccc1O/N=C(\C)C(C)(C)C` [Example 150, N-[(2Z)-3-butyl-5-tert-butyl-1,3,4-thiadiazol-2(3H)-ylidene]-5-(trifluoromethyl)-2-({[(1E)-1,2,2-trimethylpropylidene]amino}oxy)benzamide], for which the Ki turned out to be 216 nM on human CB2 receptors (setting [1]) and 283 nM on rat CB2 (setting [2]).
Consider `CC(C)Cn1nc(C(C)(C)C)s/c1=N\C(=O)c1cc(C(F)(F)F)ccc1ONC(C)(C)C` [Example 152, 2-[(tert-butylamino)oxy]-N-[(2Z)-5-tert-butyl-3-isobutyl-1,3,4-thiadiazol-2(3H)-ylidene]-5-(trifluoromethyl)benzamide], for which the Ki at human CB2 receptors (setting [1]) worked out at 29 nM; at rat CB2 (setting [2]), 31 nM.
In the case of `Cn1c(C(C)(C)C)c/c(=N\C(=O)c2cc(C(F)(F)F)ccc2ONC(C)(C)C)n1CC1CCC1` [Example 155, 2-[(tert-butylamino)oxy]-N-[(3E)-5-tert-butyl-2-(cyclobutylmethyl)-1-methyl-1,2-dihydro-3H-pyrazol-3-ylidene]-5-(trifluoromethyl)benzamide], the Ki was determined as 27 nM on human CB2 receptors and 14 nM at rat CB2.
`Cn1c(C(C)(C)C)c/c(=N\C(=O)c2cc(C(F)(F)F)ccc2ONC(C)(C)C)n1CCC(F)(F)F` [Example 156, 2-[(tert-butylamino)oxy]-N-[(3E)-5-tert-butyl-1-methyl-2-(3,3,3-trifluoropropyl)-1,2-dihydro-3H-pyrazol-3-ylidene]-5-(trifluoromethyl)benzamide]: the Ki at human CB2 receptors amounted to 68 nM; at rat CB2 it was 10 nM.
In the case of `CCCCn1ccc(C(C)(C)C)c/c1=N\C(=O)c1cc(C(F)(F)F)ccc1ONC(C)(C)C` [Example 157, 2-[(tert-butylamino)oxy]-N-[(2E)-1-butyl-4-tert-butylpyridin-2(1H)-ylidene]-5-(trifluoromethyl)benzamide], the Ki was 128 nM on human CB2 receptors (setting [1]) and 9.4 nM at rat CB2 (setting [2]).
`COCCn1nc(C(C)(C)C)s/c1=N\C(=O)c1cc(C(F)(F)F)ccc1ONC(C)(C)C` [Example 158, 2-[(tert-butylamino)oxy]-N-[(2Z)-5-tert-butyl-3-(2-methoxyethyl)-1,3,4-thiadiazol-2(3H)-ylidene]-5-(trifluoromethyl)benzamide]: the inhibitory constant (Ki) at human CB2 receptors (setting [1]) amounted to 39 nM; on rat CB2 (setting [2]) it was 3.6 nM.
Turning to `CCCCn1/c(=N/C(=O)c2cc(C(F)(F)F)ccc2ONC(C)C)cc(C(C)(C)C)n1C` [Example 159, N-[(3E)-2-butyl-5-tert-butyl-1-methyl-1,2-dihydro-3H-pyrazol-3-ylidene]-2-[(isopropylamino)oxy]-5-(trifluoromethyl)benzamide], the inhibition constant Ki came out at 16 nM on human CB2 receptors (setting [1]) and 5.2 nM on rat CB2 (setting [2]).
In the same order, the values of `CCCCn1cc(C(C)(C)C)cc/c1=N\C(=O)c1cc(C(F)(F)F)ccc1ONC(C)(C)C` [Example 160, 2-[(tert-butylamino)oxy]-N-[(2E)-1-butyl-5-tert-butylpyridin-2(1H)-ylidene]-5-(trifluoromethyl)benzamide] are 88 nM and 5.9 nM.
On to `Cn1c(C(C)(C)C)c/c(=N\C(=O)c2cc(C#N)ccc2ONC(C)(C)C)n1C[C@H]1CCCO1` [Example 161, 2-[(tert-butylamino)oxy]-N-{(3E)-5-tert-butyl-1-methyl-2-[(2R)-tetrahydrofuran-2-ylmethyl]-1,2-dihydro-3H-pyrazol-3-ylidene}-5-cyanobenzamide], for which the Ki on human CB2 receptors (setting [1]) worked out at 209 nM; at rat CB2 (setting [2]), 11 nM.
The corresponding values for `CCCCn1nc(C(C)(C)C)s/c1=N\C(=O)c1cc(Cl)ccc1ONC(C)(C)C` [Example 162, 2-[(tert-butylamino)oxy]-N-[(2Z)-3-butyl-5-tert-butyl-1,3,4-thiadiazol-2(3H)-ylidene]-5-chlorobenzamide] are 8.5 nM and 0.6 nM.
On to `CC(C)(C)NOc1ccc(C(F)(F)F)cc1C(=O)/N=c1\sc(C(C)(C)C)nn1CC1CC1` [Example 163, 2-[(tert-butylamino)oxy]-N-[(2Z)-5-tert-butyl-3-(cyclopropylmethyl)-1,3,4-thiadiazol-2(3H)-ylidene]-5-(trifluoromethyl)benzamide], for which the results for the inhibition constant (Ki) on human CB2 receptors (setting [1]) and at rat CB2 (setting [2]) were 16 nM and 3 nM, respectively.
For the compound `Cn1c(C(C)(C)C)c/c(=N\C(=O)c2cc(Cl)ccc2ONC(C)(C)C)n1C[C@H]1CCCO1` [Example 168, 2-[(tert-butylamino)oxy]-N-{(3E)-5-tert-butyl-1-methyl-2-[(2R)-tetrahydrofuran-2-ylmethyl]-1,2-dihydro-3H-pyrazol-3-ylidene}-5-chlorobenzamide], the inhibition constant Ki was 52 nM at human CB2 receptors (setting [1]) and 21 nM at rat CB2 (setting [2]).
The corresponding values for `CCCCn1nc(C(C)(C)C)s/c1=N\C(=O)c1cc(C(F)(F)F)ccc1ONC(=O)C(C)(C)C` [Example 169, N-[(2Z)-3-butyl-5-tert-butyl-1,3,4-thiadiazol-2(3H)-ylidene]-2-{[(2,2-dimethylpropanoyl)amino]oxy}-5-(trifluoromethyl)benzamide] are 0.6 nM and 0.6 nM.
The corresponding values for `CCCCn1nc(C(C)(C)C)s/c1=N\C(=O)c1ccc(C(F)(F)F)cc1ONC(C)(C)C` [Example 170, 2-[(tert-butylamino)oxy]-N-[(2Z)-3-butyl-5-tert-butyl-1,3,4-thiadiazol-2(3H)-ylidene]-4-(trifluoromethyl)benzamide] are 127 nM and 6.3 nM.

Usually Ki stands for a measure of affinity in units of concentration, obtained from inhibition or displacement.
